{"source": "patent US20200246268A1", "about": "“CPZEN COMPOSITIONS AND USES” (PAI Life Sciences Inc., priority 2017, published 2020)", "key": {"[1]": {"format": "physicochemical", "conditions": "base treatment (0.1 M NaOH, pH=12.8, 72 hours)", "procedure": "Prior to evaluating the long-term stability of a spray-dried combination powder, multiple forced degradations on capreomycin and CPZEN-45 were performed before determining the chromatographic profile of treated materials and monitoring absorbance at 265 nm using a Shimadzu RP-HPLC unit. By this method, it was confirmed that it was possible to detect drug degradation as well as any degradants generated.\nForced degradations were performed by subjecting aqueous solutions of non-spray-dried capreomycin or CPZEN-45 at 0.1 mg/mL to multiple conditions (all at 23° C. unless noted otherwise): control (no treatment, 72 hours), acid (0.1 M HCl, pH=1.2, 72 hours), base (0.1 M NaOH, pH=12.8, 72 hours), oxidizer (3% w/v 2Na2CO3 3H2O2 (sodium percarbonate), 72 hours), 60° C. for 72 hours, or 90° C. for 30 minutes.\nCapreomycin and CPZEN-45 content for forced degradation, stability, and impactor studies was measured by RP-HPLC with a Shimadzu system consisting of an SCL-10AVP system controller, two LC-10ADVP pumps, a DGU-14A degasser, SIL-10A autoinjector, and SPD-M10AVP diode array detector. […] All peaks were detected at wavelength 265 nm. Linearity for total capreomycin was obtained between 1 and 75 μg/mL (R^2=0.996) with a limit of detection (LOD) of 0.74 μg/mL. Linearity for CPZEN-45 was obtained between 0.5 and 100 μg/mL (R^2=0.996) with an LOD of 1.03 μg/mL. […]"}, "porcine stomach mucin": {"system": "porcine stomach mucin", "assay": "Mucin binding dialysis assay", "procedure": "Mucin binding was evaluated using a dialysis assay developed previously (Huang et al., 2015). Briefly, 100 μL of capreomycin, CPZEN-45, or a 50:50 combination of both at 4 mg/mL per drug was suspended in 900 μL Dulbecco's PBS without calcium or magnesium (Lonza, Cat. #17-512F) either with or without 12.5% (wt./vol) porcine stomach mucin (Sigma-Aldrich, Cat. #M1778, type III, bound sialic acid 0.5% to 1.5%, partially purified powder). The resulting mixtures were placed in Spectra/Por dialysis bags (6- to 8-kDa molecular mass cutoff, 32-mm flat width, 20.4-mm diameter; 3.3-ml/cm volume; Spectrum Laboratories, Cat. #132655, Rancho Dominguez, Calif.), with the tube ends closed using standard dialysis bag closures. […] Dialysate samples (200 μl) were collected at 10, 60, 120, and 240 minutes and the antibiotic concentration within each dialysate was determined by HPLC UV/vis analysis. The percentage of each antibiotic detected in the dialysate was calculated relative to the theoretical total concentration based on 400 μg of antibiotic in an 11-ml total volume. […]\nColistin sulfate content was measured via mass spectrometry on an Agilent 6460 Triple Quadrupole LC/MS System with a Waters Cortecs UPLC C18 1.6 2.1×50 mm column."}, "[2]": {"assay": "Accelerated stability study: assay and related substances by HPLC", "format": "physicochemical", "conditions": "for CPZEN-45 assay by HPLC / Related Substances by HPLC: CPZEN-45 API", "procedure": "Drugs were stored either individually as a free-flowing powder, as a 1:1 spray-dried formulation of capreomycin and CPZEN-45 as a free-flowing powder, or as a 1:1 spray-dried formulation in #3 hydroxypropylmethylcellulose (HPMC) capsules. All samples were deposited into 5 mL screw-top glass vials. Samples were collected at the beginning of the study, after 1 week, 1 month, 3 months, and 6 months. HPLC-based methods for detecting CPZEN-45, capreomycin, and degradation products are described in the “Methods” section below.\nCapreomycin and CPZEN-45 content for forced degradation, stability, and impactor studies was measured by RP-HPLC with a Shimadzu system consisting of an SCL-10AVP system controller, two LC-10ADVP pumps, a DGU-14A degasser, SIL-10A autoinjector, and SPD-M10AVP diode array detector. […] All peaks were detected at wavelength 265 nm. Linearity for total capreomycin was obtained between 1 and 75 μg/mL (R^2=0.996) with a limit of detection (LOD) of 0.74 μg/mL. Linearity for CPZEN-45 was obtained between 0.5 and 100 μg/mL (R^2=0.996) with an LOD of 1.03 μg/mL."}, "[3]": {"conditions": "in vivo; cited from earlier work"}, "[4]": {"conditions": "40° C./75% RH table, T = 3 MON, footnote: due to melting values after month 3 are 30° C./60% RH"}, "[5]": {"conditions": "40° C./75% RH table, T = 6 MON, footnote: due to melting values after month 3 are 30° C./60% RH"}}, "note": "Where “and” joins values, the source holds several entries; their conditions need not be identical. Equal values may be shown once."}
{"compound": "CCCCc1ccc(NC(=O)C2=CCN(C)[C@@H]([C@H](O[C@@H]3O[C@H](CN)[C@@H](O)[C@H]3O)[C@H]3O[C@@H](n4ccc(=O)[nH]c4=O)[C@H](O)[C@@H]3O)C(=O)N2C)cc1", "note": "[CPZEN-45]", "values": [{"measurement": "Loss of the original mass of intact compound", "setting": "[1]", "value": "approximately 88%"}, {"measurement": "Percentage of efflux in the presence of mucin relative to samples without mucin", "setting": "porcine stomach mucin; not told", "value": 48, "unit": "%"}, {"measurement": "Stability in accelerated stability studies", "setting": "[2]", "value": "highly stable"}, {"measurement": "CPZEN-45 assay by HPLC", "setting": "[2]; 25° C./60% RH, T = 0, replicates 1-3 and average ± RSD", "value": "98.1% and 98.0% and 95.3%"}, {"measurement": "Related Substances by HPLC", "setting": "[2]; 25° C./60% RH, T = 1 MON, replicates 1-3 and average", "value": 0.7, "unit": "%"}, {"measurement": "CPZEN-45 assay by HPLC", "setting": "[2]; 25° C./60% RH, T = 1 MON, replicates 1-3 and average ± RSD", "value": "100.7% and 98.0% and 99.5%"}, {"measurement": "Related Substances by HPLC", "setting": "[2]; 25° C./60% RH, T = 1 WEEK, replicates 1-3 and average", "value": 0.4, "unit": "%"}, {"measurement": "CPZEN-45 assay by HPLC", "setting": "[2]; 25° C./60% RH, T = 1 WEEK, replicates 1-3 and average ± RSD", "value": "96.2% and 95.8% and 97.1%"}, {"measurement": "Related Substances by HPLC", "setting": "[2]; 25° C./60% RH, T = 3 MON, replicates 1-3 and average", "value": "0.4% and 0.6%"}, {"measurement": "CPZEN-45 assay by HPLC", "setting": "[2]; 25° C./60% RH, T = 3 MON, replicates 1-3 and average ± RSD", "value": "98.0% and 103.2%"}, {"measurement": "Related Substances by HPLC", "setting": "[2]; 25° C./60% RH, T = 6 MON, replicates 1-3 and average", "value": 0.8, "unit": "%"}, {"measurement": "CPZEN-45 assay by HPLC", "setting": "[2]; 25° C./60% RH, T = 6 MON, replicates 1-3 and average ± RSD", "value": "97.2% and 98.4% and 97.1%"}, {"measurement": "CPZEN-45 assay by HPLC", "setting": "[2]; [4]", "value": "97.2% and 101.0% and 102.8%"}, {"measurement": "Related Substances by HPLC", "setting": "[2]; [4]", "value": "0.6% and 0.8%"}, {"measurement": "CPZEN-45 assay by HPLC", "setting": "[2]; [5]", "value": "96.5% and 98.0% and 97.5%"}, {"measurement": "Related Substances by HPLC", "setting": "[2]; [5]", "value": "1.4% and 1.2%"}, {"measurement": "CPZEN-45 assay by HPLC", "setting": "[2]; 40° C./75% RH, T = 0, replicates 1-3 and average ± RSD", "value": "98.1% and 98.0% and 95.3%"}, {"measurement": "Related Substances by HPLC", "setting": "[2]; 40° C./75% RH, T = 1 MON, replicates 1-3 and average", "value": "2.5% and 1.8% and 2.0%"}, {"measurement": "CPZEN-45 assay by HPLC", "setting": "[2]; 40° C./75% RH, T = 1 MON, replicates 1-3 and average ± RSD", "value": "100.3% and 96.0% and 94.4%"}, {"measurement": "Related Substances by HPLC", "setting": "[2]; 40° C./75% RH, T = 1 WEEK, replicates 1-3 and average", "value": 0.5, "unit": "%"}, {"measurement": "CPZEN-45 assay by HPLC", "setting": "[2]; 40° C./75% RH, T = 1 WEEK, replicates 1-3 and average ± RSD", "value": "96.1% and 96.4% and 95.9%"}, {"measurement": "Oral availability", "setting": "[3]", "value": "not orally available due to poor absorption from the gastrointestinal tract"}]}
{"compound": "colistin sulfate", "values": [{"measurement": "Percentage of efflux in the presence of mucin relative to samples without mucin", "setting": "porcine stomach mucin; after 4 hours, drug alone, 12.5% porcine stomach mucin, 37° C.", "value": 20, "unit": "%"}]}
